From patent US20060159715A1, “Conjugate of fine porous particles with polymer molecules and the utilization thereof” (priority 2003, published 2006)

Conditions: L-DOPA added after three-hour incubation in phosphate buffer; FIG. 5
Source text: Hydroquinone was supported on conjugate in the same manner as in Example 4 except that hydroquinone was used in place of pyrene. Hydroquinone and clay particles-supported hydroquinone were examined for the resistance to the oxidation of L-DOPA.

Oc1ccc(O)cc1 [hydroquinone, Hydroquinone]
antioxidation property against L-DOPA oxidation: completely lost antioxidation property
